Some test systems named below: NCI-H23 lung; CAKI-1 renal; MALME-3M melanoma; NCI-H226 lung; PC-3 prostate; MDA-MB-231 breast; EKVX NSCLC; OVCAR-5 ovarian; HCT-15 colon; MCF7 breast; T-47D breast; MDA-N; NCI-H522 lung; HOP-92 NSCLC; ACHN renal; HOP-62 NSCLC; NCI-H460 lung; SF-268 CNS.
Assay in all cases: NCI tumour cell line growth inhibition, 48 h

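How tested: cells in 96-well plates exposed to compound for 48 hours at five concentrations. At the TGI there is no net growth.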

Consider `FC(F)(F)c1ccc2c(-c3cc[nH]c3)ccnc2c1`, for which the TGI in the assay with NCI-H23 lung is above 100 µM; in the assay on CAKI-1 renal, 94 µM; with MALME-3M melanoma it was 50.4 µM; in the assay with NCI-H226 lung, above 100 µM; with PC-3 prostate, above 100 µM; with MDA-MB-231 breast, above 100 µM. The TGI is above 100 µM in the assay with EKVX NSCLC; 87.4 µM in the assay with OVCAR-5 ovarian; above 100 µM in the assay on HCT-15 colon; above 100 µM with MCF7 breast; above 100 µM in the assay on T-47D breast; above 100 µM in the assay with MDA-N. Further, the TGI was 94.9 µM in the assay with NCI-H522 lung; above 100 µM in the assay on HOP-92 NSCLC; above 100 µM with ACHN renal; above 100 µM in the assay with HOP-62 NSCLC; above 100 µM with NCI-H460 lung.
In the case of `CCC1C(NC(=O)OC)C(=O)N1[C@@H](C)c1ccccc1` (stereo partly specified), the TGI with NCI-H23 lung, in the assay on CAKI-1 renal, in the assay on MALME-3M melanoma, in the assay on NCI-H226 lung, in the assay on PC-3 prostate and in the assay on MDA-MB-231 breast was above 100 µM each time. The TGI in the assay with EKVX NSCLC, in the assay on SF-268 CNS, in the assay on OVCAR-5 ovarian, in the assay with HCT-15 colon, in the assay on MCF7 breast and in the assay with T-47D breast was above 100 µM throughout. The TGI with MDA-N, in the assay with NCI-H522 lung, in the assay with HOP-92 NSCLC, with ACHN renal, in the assay with HOP-62 NSCLC and in the assay with NCI-H460 lung was above 100 µM in each case.
Consider `COc1ccc(C2(CC(C)C)CCNC2)cc1OC` (stereo unspecified), for which the TGI in the assay with NCI-H23 lung, with CAKI-1 renal, in the assay on MALME-3M melanoma, in the assay on NCI-H226 lung, in the assay with PC-3 prostate and with MDA-MB-231 breast was above 100 µM throughout. Further, the TGI with EKVX NSCLC, in the assay with SF-268 CNS, with OVCAR-5 ovarian, with HCT-15 colon, in the assay on MCF7 breast and in the assay on T-47D breast was above 100 µM throughout. Besides, the TGI in the assay with MDA-N, in the assay on NCI-H522 lung, in the assay on HOP-92 NSCLC, with ACHN renal, in the assay with HOP-62 NSCLC and in the assay on NCI-H460 lung was above 100 µM each time.
As to `O=S(=O)(CC(Cl)c1ccccc1)c1nc2ccccc2s1` (stereo unspecified), the TGI in the assay on NCI-H23 lung worked out at 25.5 µM; in the assay on CAKI-1 renal it was 4.4 µM; with MALME-3M melanoma it was 23.6 µM; in the assay on NCI-H226 lung, 22.1 µM; with PC-3 prostate, 29.9 µM; in the assay on MDA-MB-231 breast, 30.4 µM. Besides, the TGI in the assay on EKVX NSCLC stood at 35.4 µM; in the assay with SF-268 CNS it was 33.1 µM; with OVCAR-5 ovarian, 28.8 µM; in the assay with HCT-15 colon, 21.9 µM; in the assay with MCF7 breast, 23.3 µM; in the assay on T-47D breast, 41.7 µM. The TGI in the assay with MDA-N is 18.1 µM; in the assay with NCI-H522 lung, 4.89 µM; in the assay with HOP-92 NSCLC it was 9.38 µM; in the assay on ACHN renal, 29.1 µM; in the assay with HOP-62 NSCLC, 41.1 µM; in the assay on NCI-H460 lung it was 52.4 µM.
Take `CCCC(=O)OCC1OC(n2cc(F)c(=O)[nH]c2=O)C(F)C1O` (stereo unspecified): the TGI in the assay with NCI-H23 lung, in the assay with MALME-3M melanoma, with NCI-H226 lung, with PC-3 prostate, in the assay with MDA-MB-231 breast and in the assay with EKVX NSCLC was above 100 µM throughout. Moreover, the TGI in the assay on SF-268 CNS, in the assay on OVCAR-5 ovarian, with HCT-15 colon, in the assay with MCF7 breast, in the assay with T-47D breast and with MDA-N was above 100 µM in each case. Moreover, the TGI in the assay on NCI-H522 lung, in the assay with HOP-92 NSCLC, in the assay with ACHN renal, in the assay with HOP-62 NSCLC and in the assay with NCI-H460 lung was above 100 µM in each case.
For `COc1ccccc1NC1Oc2cc3c(cc2C(c2cc(OC)c(OC)c(OC)c2)C1C)OCO3` (stereo unspecified), the TGI is above 82.1 µM in the assay on NCI-H23 lung; 17.1 µM with CAKI-1 renal; 9.43 µM in the assay on MALME-3M melanoma; 9.92 µM with NCI-H226 lung; above 100 µM in the assay on PC-3 prostate; above 23.9 µM in the assay with MDA-MB-231 breast. Also, the TGI is above 100 µM in the assay on EKVX NSCLC; above 46.2 µM with SF-268 CNS; above 100 µM in the assay with OVCAR-5 ovarian; above 100 µM in the assay with HCT-15 colon; above 100 µM in the assay with MCF7 breast; above 100 µM in the assay on T-47D breast. Moreover, the TGI is 1.82 µM in the assay on MDA-N; 4.82 µM in the assay on NCI-H522 lung; above 22.8 µM with HOP-92 NSCLC; above 100 µM in the assay on ACHN renal; above 51.1 µM with HOP-62 NSCLC; above 100 µM in the assay on NCI-H460 lung.
In the case of `CC(C(=O)NCNC(=O)c1ccccc1)C(=O)Nc1ccccc1` (stereo unspecified), the TGI in the assay on NCI-H23 lung, with CAKI-1 renal, in the assay on MALME-3M melanoma, in the assay with NCI-H226 lung, in the assay with PC-3 prostate and in the assay with MDA-MB-231 breast was above 100 µM in each case. The TGI with EKVX NSCLC, in the assay with SF-268 CNS, in the assay on OVCAR-5 ovarian, in the assay with HCT-15 colon, with MCF7 breast and in the assay with T-47D breast was above 100 µM each time. The TGI with MDA-N, with NCI-H522 lung, in the assay on HOP-92 NSCLC, in the assay with ACHN renal and in the assay with NCI-H460 lung was above 100 µM each time.
On to `Cc1cc(C)n(-c2nc(-n3nc(C)cc3C)nc(-n3nc(C)cc3C)n2)n1`, for which the TGI in the assay with NCI-H23 lung, in the assay on CAKI-1 renal, in the assay with MALME-3M melanoma, with NCI-H226 lung, in the assay on PC-3 prostate and with MDA-MB-231 breast was above 100 µM in each case. Further, the TGI with EKVX NSCLC, in the assay with SF-268 CNS, in the assay with OVCAR-5 ovarian, in the assay on HCT-15 colon, in the assay with MCF7 breast and in the assay on T-47D breast was above 100 µM throughout. Moreover, the TGI in the assay on MDA-N, in the assay with NCI-H522 lung, in the assay on HOP-92 NSCLC, in the assay on ACHN renal, in the assay on HOP-62 NSCLC and in the assay with NCI-H460 lung was above 100 µM in each case.

The record behind these values is PubChem BioAssay (NCI).
